Assay results: US20090208550A1, “Methods and compositions for treating hepatic diseases” (priority 2007, published 2009)

What was measured:
[1] = system: AML-12 mouse hepatocyte cell line; test: Oil Red O staining, lipid content of AML-12 hepatocytes (Example 1); type: cell-based; conditions: AML-12 cells, 24 hours
[2] = system: ATP citrate lyase (ACL) mRNA; test: Real-time PCR of ACL mRNA in cultured AML-12 hepatocytes; type: cell-based, mouse; conditions: AML-12 cells, 24 hours; for mRNA for ACL: 10^-6M, control 100.0%, n=3
Experimental: (§1) Total RNA was isolated from cultured hepatocytes using Trizol reagent (Invitrogen, USA) and RNA extracted according to the manufacturer's instructions, then dissolved in sterile DEPC water and stored at −80° C. 1 μg RNA of sample RNA was transcribed to cDNA with the GeneAmp RNA Core Kit (Applied Biosystems, Branchburg, N.J.). Primer sequences ATP citrate lyase (ACL): forward 5′-GAAGCTGACCTTGCTGAACC-3′, reverse 5′-CTGCCTCCAATGATGAGGAT-3′; fatty acid synthase (FAS): forward 5′-TGGGTTCTAGCCAGCAGAGT-3′, reverse: 5′-ACCACCAGAGACCGTTATGC-3′. PCR was performed with the SYBR Green PCR Kit (Applied Biosystems, Foster City, Calif.) following the manufacturer's instructions and carried out on the Mx3005P™ Q-PCR system (Stratagene, La Jolla, Calif.) in 50 μl volume. The number of copies for each amplicon was calculated by Mx3005P software, normalized to GAPDH and expressed as a dimensionless ratio.

[3] = system: fatty acid synthase (FAS) mRNA; test: Real-time PCR of FAS mRNA in cultured AML-12 hepatocytes; type: cell-based, mouse; conditions: AML-12 cells, 24 hours; for mRNA for FAS: 10^-6M, control 100.0%, n=3
Experimental: as §1

[4] = system: AML-12 hepatocytic cells; test: Fat accumulation in AML-12 cells: Oil Red O staining and cellular triglyceride (Example 7); conditions: twenty-four hours; for intracellular triglyceride levels / lipid accumulation by Oil Red O staining / blockade of the effect of NECA on hepatocyte triglyceride accumulation: NECA 10 mM; for blockade of the effect of NECA on hepatocyte triglyceride accumulation: MRS1706 1 mM
Experimental: Hepatocyte cell culture, triglyceride measurement and oil red O staining of hepatocytes. […] AML-12 Cells were grown in 1:1 mixture of DMEM-Ham's F-12 medium supplemented with 0.005 mg/ml insulin, 0.005 mg/ml transferrin, 5 ng/ml selenium, 40 ng/ml dexamethasone, 10% fetal bovine serum and antibiotics. Upon reaching 70-80% confluence the cells were treated for 6 hours in serum-free DMEM-Ham's F-12 medium and then treated with different adenosine receptor agonists, antagonists or vehicle (DSMO, 1.28×10^−5M), respectively. The method of the triglyceride measurement of hepatocytes is the same as the liver tissue. The cells were fixed with 10% neutral formalin, and Oil Red O staining as described above.

[5] = system: ethanol-induced fatty liver in C57Bl/6 mice; test: Ethanol-induced fatty liver in mice treated with adenosine receptor antagonists (Example 5); type: in vivo, mouse; conditions: ethanol diet 6 weeks, 50 mg/Kg/Day, versus ethanol-treated wild type mice
Source text: Mouse models of fatty livers and treatment. Mice were fed an ethanol-containing liquid Lieber-De-Carli diet (ethanol provides 350 Kcal/L) or a calorie equivalent diet supplemented with maltose (BioServ Inc., Frenchtown, N.J.) for 6 weeks. […] In first week, animals were gradually introduced to the ethanol diet following the manufacturer's instructions. Mice were sacrificed by CO2 narcosis at the end of the experiment and their livers were collected. Two wild type mice and one CD73 knockout mouse on an ethanol-containing diet died, and none of the antagonist-treated or other knockout mice died during the course of these experiments.
Hematoxylin-Eosin (H&E) and Oil Red O staining of liver sections. Livers were fixed with 10% neutral formalin, embedded in paraffin and stained with H&E for histological examination. Liver steatosis was graded as previously described (Hong et al., Hepatology (2004) 40:933-941) based on the semiquantitative estimation of the percentage of lipid-laden hepatocytes in the liver according to the following criteria: grade 0: no hepatocytes involved; grade 1: 1% to 25% of hepatocytes involved; grade 2: 26% to 50% of hepatocytes involved; grade 3: 51% to 75% of hepatocytes involved; and grade 4: 76% to 100% of hepatocytes involved. At least five random different high power fields (hpf) of each cross-section (400× magnification) were graded in a blinded way. […]
Measurements of serum AST and triglyceride. […] AST and triglyceride were measured by standard techniques in the Clinical Laboratory of Bellevue Hospital. […]
Materials and Methods. […] The liver and body of the mice were weighed on the day of sacrifice and the liver/total body weight ratio calculated. The serum AST and triglyceride and hepatic tissue triglyceride levels were also measured, as described in Example 3, supra. […]

[6] = system: ACL, FAS, ACCα, CPTI, PPARα, PPARγ and SREBP1 mRNA in mouse liver tissue; test: Real-time PCR of hepatic mRNA expression in ethanol-fed mice (Example 6); type: in vivo; conditions: chronic ethanol ingestion, 50 mg/Kg/Day, n=5
Experimental: Real-time PCR quantitation of mRNA. Total RNA was isolated from liver tissue using Trizol reagent (Invitrogen, USA) and RNA extracted according to the manufacturer's instructions, then dissolved in sterile DEPC water and stored at −80° C. 1 μg of sample RNA was transcribed to cDNA with the GeneAmp RNA Core Kit (Applied Biosystems, Branchburg, N.J.). […] The number of copies for each amplicon was calculated by Mx3005P software, normalized to GAPDH and expressed as a dimensionless ratio.
Materials and methods. mRNA expression of genes in hepatic tissue was assessed by Real-time PCR and normalized to GAPDH. […] The number of copies for each amplicon was calculated by Mx3005P software, normalized to GAPDH and expressed as a dimensionless ratio.

| SMILES | mRNA for ACL [2] [%] | mRNA for FAS [3] [%] | intracellular triglyceride levels ([4]; CPA 1 mM) | lipid accumulation by Oil Red O staining ([4]; CPA 1 mM) | serum AST levels [5] | blockade of the effect of NECA on hepatocyte triglyceride accumulation ([4]; DPCPX 1mM) | other results |
| --- | --- | --- | --- | --- | --- | --- | --- |
| OC[C@H]1O[C@@H](n2cnc3c(NC4CCCC4)ncnc32)[C@H](O)[C@@H]1O [CPA, N6-cyclopentyladenosine] | 181.4±12.9 | 164.2±6.8 | increased | accumulated lipid | – | – | lipid content of hepatocytes ([1]; CPA 10^-6M, Oil Red O): significantly increased |
| CCCn1c(=O)[nH]c(=O)c2[nH]cnc21 [enprofylline, 3-propylxanthine] | – | – | – | – | significantly lower | – | serum triglyceride levels [5]: significant reduction |
| CCCn1c(=O)c2[nH]c(-c3ccc(OCC(=O)Nc4ccc(C(C)=O)cc4)cc3)nc2n(CCC)c1=O [MRS1706, N-(4-aceptylphenyl)-2-[4-(2,3,6,7-tetrahydro-2,6-dioxo-1,3-dipropyl-1H-purine-8-yl)phenoxy]acetamide] | – | – | – | – | – | almost completely abrogated | – |
| CCCn1c(=O)c2[nH]c(C3CCCC3)nc2n(CCC)c1=O [DPCPX, 1,3 dipropyl-8-cyclopentylxantine] | 92.0±5.2 | 105.8±5.3 | – | – | significantly lower | partly blocked | blockade of the effect of CPA on lipid content of hepatocytes ([1]; CPA 10^-6M + DPCPX 10^-6M): nearly completely blocked; blockade of the CPA-induced increase of mRNA for ACL [2]: completely blocked; blockade of the CPA-induced increase of mRNA for FAS [3]: completely blocked; ethanol-induced change of mRNA expression of ACCα, CPT1 and PPARα in liver [6]: reduced; ethanol-induced mRNA expression of ACL, FAS, PPARγ and SREBP1 in liver [6]: prevented the ethanol-induced increase in expression; blockade of the effect of CPA on hepatocyte triglyceride accumulation ([4]; CPA 1 mM, DPCPX 1mM): almost completely abrogated |
| CCNC(=O)[C@H]1O[C@@H](n2cnc3c(N)ncnc32)[C@H](O)[C@@H]1O [NECA, 5′-N-ethylcarboxamidoadenosine] | – | – | increased | accumulated lipid | – | – | – |
